Measured values as given in patent US20230399341A1, “7-PHENYL SUBSTITUTED 2-AMINOQUINAZOLINE INHIBITORS OF HPK1” (MERCK SHARP & DOHME LLC, priority 2020, published 2023).

Target: T1, Human HPK1, catalytic domain (Homo sapiens, UniProt Q92918)
T1 sequence (Q92918 1-346): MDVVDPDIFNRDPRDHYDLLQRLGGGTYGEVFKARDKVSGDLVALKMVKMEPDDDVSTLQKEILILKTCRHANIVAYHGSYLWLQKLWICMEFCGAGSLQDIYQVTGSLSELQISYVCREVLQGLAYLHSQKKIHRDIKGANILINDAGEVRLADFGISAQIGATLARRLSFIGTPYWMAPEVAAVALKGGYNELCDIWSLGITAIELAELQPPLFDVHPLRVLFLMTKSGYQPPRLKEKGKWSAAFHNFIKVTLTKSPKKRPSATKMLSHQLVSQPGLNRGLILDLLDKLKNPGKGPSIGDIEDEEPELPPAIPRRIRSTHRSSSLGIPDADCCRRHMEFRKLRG
Test: HPK1-SLP76 TR-FRET Assay
Format: biochemical
Conditions: 75 pM HPK1, ATP 10 uM, SLP76 10 nM, 30 min pre-incubation, 60 min reaction

`COc1cc2c(cc1Nc1ncc3ccc(-c4ccc(C(F)(F)C(N)=O)nc4)cc3n1)CN(C)CC2` [Compound 1-12, 2,2-difluoro-2-(5-{2-[(6-methoxy-2-methyl-1,2,3,4-tetrahydroisoquinolin-7-yl)amino]quinazolin-7-yl}pyridin-2-yl)acetamide] showed an IC50 of 341 nM.

Compound `Cc1ncccc1Nc1ncc2c(N)c(F)c(-c3cnc4c(c3C)NCCO4)cc2n1` [Compound 2-32, 6-fluoro-7-(8-methyl-2,3-dihydro-1H-pyrido[2,3-b][1,4]oxazin-7-yl)-N~2~- (2-methylpyridin-3-yl)quinazoline-2,5-diamine] has an IC50 of 0.669 nM.

With `Cc1c(-c2cc3nc(Nc4ccccc4)ncc3c(N)c2F)cnc2c1NCCO2` [Compound 2-25, 6-fluoro-7-(8-methyl-2,3-dihydro-1H-pyrido[2,3-b][1,4]oxazin-7-yl)-N~2~- phenylquinazoline-2,5-diamine] the IC50 was 0.275 nM.

`CNC(=O)Cc1ccc(Nc2ncc3c(N)c(F)c(-c4cnc5c(c4C)NCCO5)cc3n2)cc1` [Compound 2-13] showed an IC50 of 0.0496 nM.

In the case of `COc1cc2c(cc1Nc1ncc3ccc(NC4C5COCC54)cc3n1)CN(C)CC2` (stereo not drawn) [Compound 3-74, N~2~-(6-methoxy-2-methyl-1,2,3,4-tetrahydroisoquinolin-7-yl)-N~7~-(3-oxabicyclo[3.1.0]-hexan-6-yl)quinazoline-2,7-diamine], the IC50 is reported as 138 nM.

`Cc1c(-c2cc3nc(Nc4ccc5c(c4)CN(C)CC54CC4)ncc3c(N)c2F)cnc2c1NCCO2` [Compound 2-73, 6-fluoro-7-(8-methyl-2,3-dihydro-1H-pyrido[2,3-b][1,4]oxazin-7-yl)-N~2~- (2′-methyl-2′,3′-dihydro-1′H-spiro[cyclopropane-1,4′-isoquinolin]-7′-yl)quinazoline-2,5-diamine] showed an IC50 of 0.0508 nM.

For `Cc1c(-c2cc3nc(Nc4ccc5c(c4)CN(C)C(C)(C)C5)ncc3c(N)c2F)cnc2c1NCCO2` (single isomer, unassigned) [Compound 2-128, 6-fluoro-7-(8-methyl-2,3-dihydro-1H-pyrido[2,3-b][1,4]oxazin-7-yl)-N2-(2,3,3-trimethyl-1,2,3,4-tetrahydroisoquinolin-7-yl)quinazoline-2,5-diamine], the IC50 was 0.0337 nM.

`COc1cc(C(C)S(C)(=O)=O)ccc1Nc1ncc2c(N)c(F)c(-c3cnc4c(c3C)NCCO4)cc2n1` (single isomer, unassigned) [Compound 2-56, (R or S)-6-fluoro-N˜2˜-{2-methoxy-4-[1-(methylsulfonyl)ethyl]phenyl}-7-(8-methyl-2,3-dihydro-1H-pyrido[2,3-b][1,4]oxazin-7-yl)quinazoline-2,5-diamine] showed an IC50 of 0.102 nM.

`Cc1c(-c2cc3nc(Nc4ccc5c(c4)CCN(C)CC5)ncc3c(N)c2F)cnc2c1NCCO2` [Compound 2-119, 6-fluoro-7-(8-methyl-2,3-dihydro-1H-pyrido[2,3-b][1,4]oxazin-7-yl)-N~2~- (3-methyl-2,3,4,5-tetrahydro-1H-3-benzazepin-7-yl)quinazoline-2,5-diamine] gave an IC50 of 0.038 nM.

`Cc1ccc(F)cc1-c1cc2nc(Nc3ccc4c(c3)CN(C)CC4)ncc2c(N)c1F` [Compound 2-174, 6-fluoro-7-(5-fluoro-2-methylphenyl)-N~2~-(2-methyl-1,2,3,4-tetrahydroisoquinolin-7-yl)quinazoline-2,5-diamine] gave an IC50 of 11.4 nM.

Work on `COc1cc2c(cc1Nc1ncc3c(N)c(F)c(-c4cc5oc(=O)[nH]c5cc4C)cc3n1)CN(C)CC2` [Compound 2-49, 6-(5-amino-6-fluoro-2-((6-methoxy-2-methyl-1,2,3,4-tetrahydroisoquinolin-7-yl)amino)quinazolin-7-yl)-5-methylbenzo[d]oxazol-2(3H)-one] yielded an IC50 of 10.5 nM.

`Cc1c(-c2cc3nc(Nc4ccc(C5(S(C)(=O)=O)CC5)cc4)ncc3c(N)c2F)cnc2c1NCCO2` [Compound 2-148, 6-fluoro-N~2~-{4-[1-(methanesulfonyl)cyclo-propyl]phenyl}-7-(8-methyl-2,3-dihydro-1H-pyrido[2,3-b][1,4]oxazin-7-yl)quinazoline-2,5-diamine] was tested, and the IC50 was 0.0831 nM.

`COc1ccc(CC#N)cc1Nc1ncc2c(N)c(F)c(-c3cnc4c(c3C)NCCO4)cc2n1` [Compound 2-5, (3-{[5-amino-6-fluoro-7-(8-methyl-2,3-dihydro-1H-pyrido[2,3-b][1,4]oxazin-7-yl)quinazolin-2-yl]amino}-4-methoxyphenyl)acetonitrile] showed an IC50 of 270 nM.

`COc1cc2c(cc1Nc1ncc3ccc([C@H]4CC[C@H](N)CC4)cc3n1)CN(C)CC2` [Compound 5-1, 7-((1r,4r)-4-aminocyclohexyl)-N-(6-methoxy-2-methyl-1,2,3,4-tetrahydroisoquinolin-7-yl)quinazolin-2-amine] gave an IC50 of 662 nM.

`COc1cc2c(cc1Nc1ncc3ccc(N4CC(O)(C(F)(F)F)C4)cc3n1)CN(C)CC2` (racemic) [Compound 3-54, (S and R)-1-12-[(6-methoxy-2-methyl-1,2,3,4-tetrahydroiso-quinolin-7-yl)amino]quinazolin-7-yl}-3-(trifluoromethyl)azet-idin-3-ol] showed an IC50 of 189 nM.

`COc1cc2c(cc1Nc1ncc3ccc(-c4ccc(N)nc4)cc3n1)CNCC2` [Compound 1-27, 7-(6-aminopyridin-3-yl)-N-(6-methoxy-1,2,3,4-tetrahydroisoquinolin-7-yl)quinazolin-2-amine] was tested, and the IC50 was 9.91 nM.

With `COc1cc2c(cc1Nc1ncc3ccc(N[C@H]4CCCOCC4)cc3n1)CN(C)CC2` [Compound 3-47, (S)-N2-(6-methoxy-2-methyl-1,2,3,4-tetrahydroisoquinolin-7-yl)-N7-(oxepan-4-yl)quinaz-oline-2,7-diamine] the IC50 was 170 nM.

`CNC(=O)C1(c2ccc(Nc3ncc4cc(F)c(-c5cnc6c(c5C)NCCO6)cc4n3)cc2)CCC1` [Compound 1-121, 1-(4-{[6-fluoro-7-(8-methyl-2,3-dihydro-1H-pyrido[2,3-b][1,4]oxazin-7-yl)quinazolin-2-yl]amino}phenyl)-N-methylcyclobutane-1-carboxamide] showed an IC50 of 0.256 nM.

Work on `COc1cc2c(cc1Nc1ncc3ccc(-c4cnc5[nH]c(=O)[nH]c5c4)cc3n1)CN(C)CC2` [Compound 1-106, 6-{2-[(6-methoxy-2-methyl-1,2,3,4-tetrahydroisoquinolin-7-yl)amino]quinazolin-7-yl}-1,3-dihydro-2H-imidazo[4,5-b]pyridin-2-one] yielded an IC50 of 44.1 nM.

Compound `COc1cc2c(cc1Nc1ncc3ccc(-c4ccccc4-c4nnc(C)o4)cc3n1)CN(C)CC2` [Compound 1-110, N-(6-methoxy-2-methyl-1,2,3,4-tetrahydroisoquinolin-7-yl)-7-[2-(5-methyl-1,3,4-oxadiazol-2-yl)phenyl]quinazolin-2-amine] has an IC50 of 302 nM.

In the case of `COc1cc2c(cc1Nc1ncc3ccc(-c4cccc5c4CCNC5)cc3n1)CN(C)CC2` [Compound 1-6, N-(6-methoxy-2-methyl-1,2,3,4-tetrahydroisoquinolin-7-yl)-7-(1,2,3,4-tetrahydroisoquinolin-5-yl)quinazolin-2-amine], the IC50 is reported as 92.2 nM.

Work on `CN1CCc2ccc(Nc3ncc4c(N)c(F)c(-c5cncc6[nH]ccc56)cc4n3)cc2C1` [Compound 2-139, 6-fluoro-N~2~-(2-methyl-1,2,3,4-tetrahydroisoquinolin-7-yl)-7-(1H-pyrrolo[2,3-c]pyridin-4-yl)quinazoline-2,5-diamine] yielded an IC50 of 0.0422 nM.

`COc1cc2c(cc1Nc1ncc3ccc(-c4cnc5cccnc5c4)cc3n1)CN(C)CC2` [Compound 1-25, N-(6-methoxy-2-methyl-1,2,3,4-tetrahydroisoquinolin-7-yl)-7-(,15-naphthyridin-3-yl)quinazolin-2-amine] was tested, and the IC50 was 20 nM.

For `COc1cc2c(cc1Nc1ncc3ccc(Nc4cc(CO)ccn4)cc3n1)CN(C)CC2` [Compound 3-40, [2-({2-[(6-methoxy-2-methyl-1,2,3,4-tetrahydroisoquinolin-7-yl)amino]quinazolin-7-yl}-amino)pyridin-4-yl]methanol], the IC50 was 0.889 nM.

`COc1cc2c(cc1Nc1ncc3ccc(-c4cnccc4Cl)cc3n1)CNCC2` [Compound 1-38, 7-(4-chloropyridin-3-yl)-N-(6-methoxy-1,2,3,4-tetrahydroisoquinolin-7-yl)quinazolin-2-amine] gave an IC50 of 17.9 nM.

Compound `Cc1c(-c2cc3nc(Nc4ccc5c(c4)CN(CC(C)(C)O)C5=O)ncc3cc2F)cnc2c1NCCO2` [Compound 1-111, 5-{[6-fluoro-7-(8-methyl-2,3-dihydro-1H-pyrido[2,3-b][1,4]oxazin-7-yl)quinazolin-2-yl]amino}-2-(2-hydroxy-2-methylpropyl)-2,3-dihydro-1H-isoindol-1-one] has an IC50 of 0.766 nM.

Compound `CNCC1CN(c2ccc3cnc(Nc4cc5c(cc4OC)CCN(C)C5)nc3c2)C(=O)O1` (racemic) [Compound 3-12, (S and R)-3-12-[(6-methoxy-2-methyl-1,2,3,4-tetrahydroiso-quinolin-7-yl)amino]quinazolin-7-yl}-5-[(methylamino)methyl]-1,3-oxazolidin-2-one] has an IC50 of 94.2 nM.

Work on `COc1cc2c(cc1Nc1ncc3c(N)c(F)c(-c4cnc5c(c4C)NCCO5)cc3n1)CN(C)CC2` [Compound 2-2, 6-fluoro-N~2~-(6-methoxy-2-methyl-1,2,3,4-tetrahydroisoquinolin-7-yl)-7-(8-methyl-2,3-dihydro-1H-pyrido[2,3-b][1,4]oxazin-7-yl)quinazoline-2,5-diamine] yielded an IC50 of 0.0915 nM.

`COc1cc2c(cc1Nc1ncc3ccc(Nc4cccc(CO)c4)cc3n1)CN(C)CC2` [Compound 3-31, [3-({2-[(6-methoxy-2-methyl-1,2,3,4-tetrahydroisoquinolin-7-yl)amino]quinazolin-7-yl}-amino)phenyl]methanol] gave an IC50 of 29.4 nM.

`COc1cc(S(N)(=O)=O)ccc1Nc1ncc2c(N)c(F)c(-c3cnc4c(c3C)NCCO4)cc2n1` [Compound 2-6, 4-{[5-amino-6-fluoro-7-(8-methyl-2,3-dihydro-1H-pyrido[2,3-b][1,4]oxazin-7-yl)quinazolin-2-yl]amino}-3-methoxybenzene-1-sulfonamide] showed an IC50 of 48.1 nM.
